Experiments:
[1] = tested on: methanol-intoxicated rats; assay: Rod and M-cone (15 Hz/510 nm) ERG after 72 hours of methanol intoxication; type: in vivo, rat
Method: (§1) Methanol-intoxication Protocol.
(§2) Light-Emitting Diode Treatment.
ERG Procedures and Analyses.
All sensitivity measures were made in triplicate.
15 Hz/510 nm ERG Response. ERGs were recorded in response to a 15-Hz flickering light at a wavelength of 510 nm over a 3-log unit range of light intensity.

[2] = tested on: methanol-intoxicated rats; assay: Retinal histopathology by light and electron microscopy; settings: rat, in vivo
From the text: as §1, §2
Histopathologic Analysis.

[3] = tested on: methanol-intoxicated rats
Method: Animals were randomly assigned to one of four treatment groups: (1) Untreated control, (2) LED-treated control, (3) methanol-intoxicated and (4) LED-treated methanol-intoxicated rats. Rats were placed in a thermostatically controlled plexiglass chamber (22×55×22 cm; maintained at 22-23° C.) and exposed to a mixture of N2O/O2 (1:1; flow rate 2 liters/min) for the duration of the experiment. […] In the present studies, methanol (25% w/v methanol in saline) was administered (i.p.) to N2O/O2 treated rats at an initial dose of dose 4 g/kg, followed by supplemental doses of 1.5 g/kg at 24 and 48 hours.
Light-Emitting Diode Treatment. […] Rats were placed in a plexiglass restraint device (12.7×9×7.6 cm). The LED array was positioned directly over the animal at a distance of 1 inch, exposing the entire body. Treatment consisted of irradiation at 670 nm for 2 minutes and 24 seconds resulting in a power intensity of 28 mW/cm^2 and an energy density of 4 joules/cm^2 at 5, 25 and 50 hours after the initial dose of methanol.
ERG Procedures and Analyses. ERG experiments were performed as previously described (M. T. Seme, et al., supra, 1999; M. T. Seme, et al., supra, 2001). The light stimulation apparatus consisted of a three-beam optical system. All three beams were derived from tungsten-halide lamps (50 W, 12 V). Beam intensity was controlled by using neutral density step filters. ERG recordings were differentially amplified and computer-averaged. The amplified signal was processed through a two-stage active narrow bandpass filter (the half voltage of this filter was 0.2 times the center frequency). […] The averaged responses were measured (peak-to-trough amplitude) from a calibrated digital oscilloscope display.
Before ERG analysis, ophthalmoscopic examination confirmed that all eyes were free of lenticular opacities or other gross anomalies. […] The stimulus intensity yielding a 5-μV criterion response was determined by extrapolating between the two intensity points that bracketed the 5-μV response for each animal.

## CO [methanol, Methanol]
[1]
  increase of 5 μV threshold light intensity relative to control, 15-Hz/510-nm ERG: 0.6 log units
[1]; 72 hours, no LED
  maximal 15-Hz/510-nm ERG amplitude: 18±5 μV
  maximal rod and M-cone ERG amplitude as % of the maximum control response: approximately 28%
[1]; controls −3.0±0.1 LRRI
  light intensity required to elicit a threshold (5 μV) 15-Hz/510-nm ERG response: −2.4±0.1 LRRI
[2]
  outer retinal histopathology: Pronounced histopathologic changes
[3]
  increase of light intensity required for a 5-μV UV-cone response: 0.5 log units
[3]; 72 hours, no LED
  maximal UV-cone ERG response amplitude: 18±6 μV
[3]; no LED
  maximal UV-cone ERG amplitude as % of the maximum control response: 30%

From patent US7744590B2, “Red to near-infrared photobiomodulation treatment of the visual system in visual system disease or injury” (Medical College of Wisconsin Research Foundation, Inc., priority 2003, dated 2010)
